From US10308659B2, “Pyridine derivatives” (Hoffmann-La Roche Inc., priority 2013, dated 2019)
pEC50: −log10 of the molar value. Read-outs that look alike come from different tables or passages of the source.

What was measured:
human CB1 receptors = human CB1 receptors (Homo sapiens (Human), UniProt P21554); test: cAMP assay, CHO cells expressing human CB1 receptors; format: cell-based
Experimental: (§1) CHO cells expressing human CB1 or CB2 receptors are seeded 17-24 hours prior to the experiment 50.000 cells per well in a black 96 well plate with flat clear bottom (Corning Costar #3904) in DMEM (Invitrogen No. 31331), 1×HT supplement, with 10% fetal calf serum and incubated at 5% CO2 and 37° C. in a humidified incubator. The growth medium was exchanged with Krebs Ringer Bicarbonate buffer with 1 mM IBMX and incubated at 30° C. for 30 min. Compounds were added to a final assay volume of 100 μl and incubated for 30 min at 30° C. […] The time-resolved energy transfer is measured by a TRF reader (Evotec Technologies GmbH), equipped with a ND:YAG laser as excitation source. The plate is measured twice with the excitation at 355 nm and at the emission with a delay of 100 ns and a gate of 100 ns, total exposure time 10 s at 730 (bandwidth30 nm) or 645 nm (bandwidth 75 nm), respectively. The FRET signal is calculated as follows: FRET=T730-Alexa730-P(T645-B645) with P=Ru730-B730/Ru645-B645, where T730 is the test well measured at 730 nM, T645 is the test well measured at 645 nm, B730 and B645 are the buffer controls at 730 nm and 645 nm, respectively. cAMP content is determined from the function of a standard curve spanning from 10 μM to 0.13 nM cAMP.
(§2) EC50 values were determined using Activity Base analysis (ID Business Solution, Limited).

human CB2 receptors = human CB2 receptors (Homo sapiens (Human), UniProt P34972); test: cAMP assay, CHO cells expressing human CB2 receptors; format: cell-based
Sequence of human CB2 receptors (P34972 whole entry): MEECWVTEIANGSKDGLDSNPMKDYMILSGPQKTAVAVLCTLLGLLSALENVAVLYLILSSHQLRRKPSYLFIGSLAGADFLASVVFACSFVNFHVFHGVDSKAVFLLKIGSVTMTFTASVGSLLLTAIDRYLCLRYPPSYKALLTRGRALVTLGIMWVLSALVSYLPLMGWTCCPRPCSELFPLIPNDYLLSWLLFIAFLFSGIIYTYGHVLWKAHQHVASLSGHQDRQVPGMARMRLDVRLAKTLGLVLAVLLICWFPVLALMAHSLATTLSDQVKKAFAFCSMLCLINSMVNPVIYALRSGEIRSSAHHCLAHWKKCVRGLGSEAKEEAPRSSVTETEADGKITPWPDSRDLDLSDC
Experimental: as §1, §2

[1] = functional cAMP assay, CHO cells expressing human CB1, read-out: EC50 CB1 human
[2] = functional cAMP assay, CHO cells expressing human CB2, read-out: EC50 CB2 human

Sequence of human CB1 receptors (P21554 whole entry): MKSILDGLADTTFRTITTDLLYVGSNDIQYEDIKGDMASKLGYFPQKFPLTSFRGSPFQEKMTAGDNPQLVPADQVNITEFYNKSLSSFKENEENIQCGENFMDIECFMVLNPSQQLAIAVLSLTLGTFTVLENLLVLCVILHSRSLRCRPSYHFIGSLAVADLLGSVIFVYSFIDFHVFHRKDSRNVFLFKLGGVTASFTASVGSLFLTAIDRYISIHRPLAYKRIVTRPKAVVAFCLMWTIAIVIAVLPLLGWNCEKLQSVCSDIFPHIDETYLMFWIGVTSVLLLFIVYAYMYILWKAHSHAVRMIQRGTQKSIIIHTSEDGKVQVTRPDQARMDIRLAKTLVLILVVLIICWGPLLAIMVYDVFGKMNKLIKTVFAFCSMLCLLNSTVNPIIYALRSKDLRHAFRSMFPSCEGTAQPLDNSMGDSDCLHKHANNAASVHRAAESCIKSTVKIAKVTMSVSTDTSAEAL

## CN1CCC[C@H]1COc1cc(-c2nc(C(C)(C)C)no2)ncc1C1CC1 [Example 122, 3-tert-butyl-5-[5-cyclopropyl-4-[[(2S)-1-methylpyrrolidin-2-yl]methoxy]pyridin-2-yl]-1,2,4-oxadiazole]
Human CB1 receptors; [1]
  pEC50: < 5.00
Human CB2 receptors; [2]
  pEC50: 6.84

## CC(C)C1(C)N=C(c2cc(OCC(F)(F)F)c(C3CC3)cn2)NC1=O (stereo not drawn) [Example 66, 2-[5-cyclopropyl-4-(2,2,2-trifluoroethoxy)pyridin-2-yl]-4-methyl-4-propan-2-yl-1H-imidazol-5-one]
Human CB1 receptors; [1]
  pEC50: < 5.00
Human CB2 receptors; [2]
  pEC50: 8.05

## CC(C)(C)c1nc(-c2cc(OCC(F)(F)F)c(C3CC3)cn2)no1 [Example 33, 5-tert-butyl-3-[5-cyclopropyl-4-(2,2,2-trifluoroethoxy)pyridin-2-yl]-1,2,4-oxadiazole]
Human CB1 receptors
  pEC50: < 5.00
Human CB2 receptors
  pEC50: 8.16

## CC(C)(C)c1nc(-c2cc(OCCN3CCOCC3)c(C3CC3)cn2)no1 [Example 103, 4-[2-[2-(5-tert-butyl-1,2,4-oxadiazol-3-yl)-5-cyclopropylpyridin-4-yl]oxyethyl]morpholine]
Human CB1 receptors; [1]
  pEC50: < 5.00
Human CB2 receptors; [2]
  pEC50: 7.54

## FC(F)(F)COc1cc(-c2noc(C3CC3)n2)ncc1C1CC1 [Example 72, 5-cyclopropyl-3-[5-cyclopropyl-4-(2,2,2-trifluoroethoxy)pyridin-2-yl]-1,2,4-oxadiazole]
Human CB1 receptors; [1]
  pEC50: < 5.00
Human CB2 receptors; [2]
  pEC50: 7.34

## CCC(COC)Oc1cc(-c2noc(C(C)(C)C)n2)ncc1C1CC1 (stereo not drawn) [Example 84, 5-tert-butyl-3-[5-cyclopropyl-4-(1-methoxybutan-2-yloxy)pyridin-2-yl]-1,2,4-oxadiazole]
Human CB1 receptors; [1]
  pEC50: < 5.00
Human CB2 receptors; [2]
  pEC50: 7.30

## FC(F)(F)COc1cc(C2=NC3(CCCCC3)CO2)ncc1C1CC1 [Example 31, 2-[5-cyclopropyl-4-(2,2,2-trifluoroethoxy)pyridin-2-yl]-3-oxa-1-azaspiro[4.5]dec-1-ene]
Human CB1 receptors; [1]
  pEC50: < 5.00
Human CB2 receptors; [2]
  pEC50: 7.71

## CN1CCCC(Oc2cc(-c3noc(C(C)(C)C)n3)ncc2C2CC2)C1 (stereo not drawn) [Example 99, 5-tert-butyl-3-[5-cyclopropyl-4-(1-methylpiperidin-3-yl)oxypyridin-2-yl]-1,2,4-oxadiazole]
Human CB1 receptors; [1]
  pEC50: < 5.00
Human CB2 receptors; [2]
  pEC50: 6.50

## c1ccc(Cc2noc(-c3cc(OCC4CC4)c(C4CC4)cn3)n2)cc1 [Example 5, 3-benzyl-5-[5-cyclopropyl-4-(cyclopropylmethoxy)pyridin-2-yl]-1,2,4-oxadiazole]
Human CB1 receptors; [1]
  pEC50: < 5.00
Human CB2 receptors; [2]
  pEC50: 7.16

## COCC(C)Oc1cc(-c2noc(C(C)(C)C)n2)ncc1C1CC1 (stereo not drawn) [Example 87, 5-tert-butyl-3-[5-cyclopropyl-4-(1-methoxypropan-2-yloxy)pyridin-2-yl]-1,2,4-oxadiazole]
Human CB1 receptors; [1]
  pEC50: < 5.00
Human CB2 receptors; [2]
  pEC50: 6.95

## CC(C)(C)c1noc(-c2cc(OC3CCOCC3)c(C3CC3)cn2)n1 [Example 121, 3-tert-butyl-5-(5-cyclopropyl-4-(tetrahydro-2H-pyran-4-yloxy)pyridin-2-yl)-1,2,4-oxadiazole]
Human CB1 receptors; [1]
  pEC50: < 5.00
Human CB2 receptors; [2]
  pEC50: 9.00

## CC(C)(C)c1nc(-c2cc(S(=O)(=O)C3CC3)c(C3CC3)cn2)no1 [Example 80, 5-tert-butyl-3-(5-cyclopropyl-4-cyclopropylsulfonylpyridin-2-yl)-1,2,4-oxadiazole]
Human CB1 receptors; [1]
  pEC50: < 5.00
Human CB2 receptors; [2]
  pEC50: 7.32

## CC(C)(C)c1nc(-c2cc(Oc3cccc(S(C)(=O)=O)c3)c(C3CC3)cn2)no1 [Example 108, 5-tert-butyl-3-[5-cyclopropyl-4-(3-methylsulfonylphenoxy)pyridin-2-yl]-1,2,4-oxadiazole]
Human CB1 receptors; [1]
  pEC50: < 5.00
Human CB2 receptors; [2]
  pEC50: 7.16

## CC(C)(C)c1nc(-c2cc(OCCN3CCCC3)c(C3CC3)cn2)no1 [Example 94, 5-tert-butyl-3-[5-cyclopropyl-4-(2-pyrrolidin-1-ylethoxy)pyridin-2-yl]-1,2,4-oxadiazole]
Human CB1 receptors; [1]
  pEC50: < 5.00
Human CB2 receptors; [2]
  pEC50: 7.22

## CC(C)(C)c1nc(-c2cc(OCc3ccc(F)cn3)c(C3CC3)cn2)no1 [Example 118, 5-tert-butyl-3-[5-cyclopropyl-4-[(5-fluoropyridin-2-yl)methoxy]pyridin-2-yl]-1,2,4-oxadiazole]
Human CB1 receptors; [1]
  pEC50: < 5.00
Human CB2 receptors; [2]
  pEC50: 7.46

## CC(C)(C)c1nc(-c2cc(N3CCCC3)c(C3CC3)cn2)no1 [Example 79, 5-tert-butyl-3-(5-cyclopropyl-4-pyrrolidin-1-ylpyridin-2-yl)-1,2,4-oxadiazole]
Human CB1 receptors; [1]
  pEC50: < 5.00
Human CB2 receptors; [2]
  pEC50: 8.05

## CC(C)(C)[C@H]1COC(c2cc(OCC3CC3)c(C3CC3)cn2)=N1 [Example 20, (4S)-4-tert-butyl-2-[5-cyclopropyl-4-(cyclopropylmethoxy)pyridin-2-yl]-4,5-dihydro-1,3-oxazole]
Human CB1 receptors; [1]
  pEC50: < 5.00
Human CB2 receptors; [2]
  pEC50: 8.43

## C[C@H](Oc1cc(-c2nc(C(C)(C)C)no2)ncc1C1CC1)C(F)(F)F [Example 52, 3-tert-butyl-5-[5-cyclopropyl-4-[(2S)-1,1,1-trifluoropropan-2-yl]oxypyridin-2-yl]-1,2,4-oxadiazole]
Human CB1 receptors; [1]
  pEC50: < 5.00
Human CB2 receptors; [2]
  pEC50: 7.88

## CC1(c2nc(-c3cc(OCC(F)(F)F)c(N4CC(F)(F)C4)cn3)no2)CC1 [Example 50, 3-[5-(3,3-difluoroazetidin-1-yl)-4-(2,2,2-trifluoroethoxy)pyridin-2-yl]-5-(1-methylcyclopropyl)-1,2,4-oxadiazole]
Human CB1 receptors; [1]
  pEC50: < 5.00
Human CB2 receptors; [2]
  pEC50: 7.34

## FC(F)(F)COc1cc(-c2nc(C3CC3)no2)ncc1N1CC(F)(F)C1 [Example 15, 3-cyclopropyl-5-[5-(3,3-difluoroazetidin-1-yl)-4-(2,2,2-trifluoroethoxy)pyridin-2-yl]-1,2,4-oxadiazole]
Human CB1 receptors; [1]
  pEC50: < 5.00
Human CB2 receptors; [2]
  pEC50: 7.70

## CC(C)(C)c1nc(-c2cc(OCCF)c(C3CC3)cn2)no1 [Example 116, 5-tert-butyl-3-[5-cyclopropyl-4-(2-fluoroethoxy)pyridin-2-yl]-1,2,4-oxadiazole]
Human CB1 receptors; [1]
  pEC50: < 5.00
Human CB2 receptors; [2]
  pEC50: 7.81

## CC(C)(C)c1nc(-c2cc(OCC(F)F)c(C3CC3)cn2)no1 [Example 115, 5-tert-butyl-3-[5-cyclopropyl-4-(2,2-difluoroethoxy)pyridin-2-yl]-1,2,4-oxadiazole]
Human CB1 receptors; [1]
  pEC50: < 5.00
Human CB2 receptors; [2]
  pEC50: 8.70

## OC1(c2nc(-c3cc(OCC4CC4)c(C4CC4)cn3)no2)CC1 [Example 23, 1-[3-[5-cyclopropyl-4-(cyclopropylmethoxy)pyridin-2-yl]-1,2,4-oxadiazol-5-yl]cyclopropan-1-ol]
Human CB1 receptors; [1]
  pEC50: < 5.00
Human CB2 receptors; [2]
  pEC50: 7.45

## CC(C)(C)c1nc(-c2cc(OCc3ccccn3)c(C3CC3)cn2)no1 [Example 117, 5-tert-butyl-3-[5-cyclopropyl-4-(pyridin-2-ylmethoxy)pyridin-2-yl]-1,2,4-oxadiazole]
Human CB1 receptors; [1]
  pEC50: < 5.00
Human CB2 receptors; [2]
  pEC50: 7.27

## CCN1CCCC(Oc2cc(-c3noc(C(C)(C)C)n3)ncc2C2CC2)C1 (stereo not drawn) [Example 100, 5-tert-butyl-3-[5-cyclopropyl-4-(1-ethylpiperidin-3-yl)oxypyridin-2-yl]-1,2,4-oxadiazole]
Human CB1 receptors; [1]
  pEC50: < 5.00
Human CB2 receptors; [2]
  pEC50: 6.29

## CC(C)(C)c1nc(-c2cc(N3CC4(COC4)C3)c(C3CC3)cn2)no1 [Example 82, 6-[2-(5-tert-butyl-1,2,4-oxadiazol-3-yl)-5-cyclopropylpyridin-4-yl]-2-oxa-6-azaspiro[3.3]heptane]
Human CB1 receptors; [1]
  pEC50: < 5.00
Human CB2 receptors; [2]
  pEC50: 7.42

## COC1CN(c2cc(-c3noc(C(C)(C)C)n3)ncc2C2CC2)C1 [Example 81, 5-tert-butyl-3-[5-cyclopropyl-4-(3-methoxyazetidin-1-yl)pyridin-2-yl]-1,2,4-oxadiazole]
Human CB1 receptors; [1]
  pEC50: < 5.00
Human CB2 receptors; [2]
  pEC50: 7.68
